Converted amounts (≈) assume the structure as drawn. Like-named read-outs stand apart in the source and are kept apart here.
Assays:
Format in all cases: cell-based
[1] = test system: Micrococcus luteus ATCC 9341; experiment: MIC, Microdilution Broth Method (NCCLS); details: ATCC9341
[2] = test system: Enterobacter cloacae ATCC 13047; experiment: MIC, Microdilution Broth Method (NCCLS); details: ATCC13047
[3] = test system: Staphylococcus aureus ATCC 6538 MSSA; experiment: MIC, Microdilution Broth Method (NCCLS)
[4] = test system: Staphylococcus epidermidis ATCC 27626; experiment: MIC, Microdilution Broth Method (NCCLS); details: ATCC27626
[5] = test system: Staphylococcus aureus ATCC 25923 MSSA; experiment: MIC, Microdilution Broth Method (NCCLS)
[6] = test system: Staphylococcus epidermidis ATCC 1228; experiment: MIC, Microdilution Broth Method (NCCLS); details: ATCC1228
[7] = test system: Staphylococcus aureus ATCC 29213 MSSA; experiment: MIC, Microdilution Broth Method (NCCLS)
[8] = test system: Klebsiella pneumoniae ATCC 13883; experiment: MIC, Microdilution Broth Method (NCCLS); details: ATCC13883
[9] = test system: Pseudomonas aeruginosa (American Type Culture Collection number 9027); experiment: MIC, Nutrient Broth; details: P. aeruginosa, 37° C., 20 hours
[10] = test system: methicillin-resistant (MR) Staphylococcus aureus (American Type Culture Collection number 33591); experiment: MIC, Nutrient Broth; details: S. aureus (MR), 37° C., 20 hours
[11] = test system: Escherichia coli ATCC 12014; experiment: MIC, Microdilution Broth Method (NCCLS); details: ATCC12014
[12] = test system: Pseudomonas aeruginosa ATCC 27853; experiment: MIC, Microdilution Broth Method (NCCLS); details: ATCC27853
[13] = test system: Enterococcus faecalis ATCC 29212; experiment: MIC, Microdilution Broth Method (NCCLS)
[14] = test system: Escherichia coli ATCC 25922; experiment: MIC, Microdilution Broth Method (NCCLS); details: ATCC25922
[15] = test system: Klebsiella pneumoniae (American Type Culture Collection number 13883); experiment: MIC, two fold serial dilution in 2xYT broth; details: 37° C., 18 hours
[16] = test system: Staphylococcus capitis (American Type Culture Collection number 35661); experiment: MIC, two fold serial dilution in 2xYT broth; details: 37° C., 18 hours
[17] = test system: Enterobacter cloacae (American Type Culture Collection number 13047); experiment: MIC, two fold serial dilution in 2xYT broth; details: 37° C., 18 hours
E. coli strain DH5α = experiment: MIC, two fold serial dilution in 2xYT broth; details: Escherichia coli, 37° C., 18 hours
[18] = test system: clinical isolates of aminoglycoside and erythromycin resistant Streptococcus pneumoniae; experiment: MIC, tryptic soy broth with 7% calf serum
[19] = test system: Helicobacter pylori (American Type Culture Collection number 43504); experiment: MIC, Columbia agar base with 7% sheep blood; details: H. pylori, 35° C., 72 hours
[20] = test system: Mycobacterium ranae (American Type Culture Collection number 110); experiment: MIC, Brain Heart Infusion broth; details: M. ranae, 37° C., 48 hours
[21] = test system: Enterococcus faecalis (Vancomycin resistant strain); experiment: MIC, Microdilution Broth Method (NCCLS)
[22] = test system: Klebsiella pneumoniae (American Type Culture Collection number 10031); experiment: MIC, Nutrient Broth; details: K. pneumoniae, 37° C., 20 hours
[23] = test system: Morganella morganii ATCC 36030; experiment: MIC, Microdilution Broth Method (NCCLS); details: ATCC36030
[24] = Micrococcus luteus ATCC 9341, read-out: MIC
[25] = Staphylococcus aureus ATCC 6538 MSSA, read-out: MIC
[26] = Staphylococcus epidermidis ATCC 27626, read-out: MIC
[27] = Staphylococcus aureus ATCC 25923 MSSA, read-out: MIC
[28] = Staphylococcus epidermidis ATCC 1228, read-out: MIC
[29] = Staphylococcus aureus ATCC 29213 MSSA, read-out: MIC
[30] = Pseudomonas aeruginosa, read-out: MIC
[31] = ATCC29212, Enterococcus faecalis ATCC 29212, Gram-positive table, read-out: MIC
[32] = Streptococcus pneumoniae, S. pneumoniae, tryptic soy broth, 7% calf serum, 37° C., 48 hours, read-out: MIC
[33] = Helicobacter pylori, read-out: MIC
[34] = Enterococcus faecalis (Vancomycin resistant strain), Gram-positive table, read-out: MIC
[35] = ATCC29212, Enterococcus faecalis ATCC 29212, table of multi-resistant clinical isolate, read-out: MIC
[36] = Enterococcus faecalis Vancomycin resistant strain (multi-resistant clinical isolate), read-out: MIC
[37] = Enterococcus faecalis, ATCC29212
[38] = Enterococcus faecalis ATCC 29212, table of multi-resistant clinical isolate
[39] = Enterococcus faecalis Vancomycin resistant strain (multi-resistant clinical isolate)

CCCCC(CN(O)C=O)C(=O)N[C@H](C(=O)NC)C(C)(C)C (single isomer, unassigned) [Compound 1, 2R (or S)-[(Formyl-hydroxy-amino)-methyl]-hexanoic acid-(2,2-dimethyl-1S-methyl-carbamoyl-propyl)-amide]
MIC [1, 24]: 0.5 µg/mL (≈ 1.59 µM)
MIC [2]: 32 µg/mL (≈ 101 µM)
MIC [3, 25]: 8 µg/mL (≈ 25.4 µM)
MIC [4, 26]: 8 µg/mL (≈ 25.4 µM)
MIC [5, 27]: 16 µg/mL (≈ 50.7 µM)
MIC [6, 28]: 8 µg/mL (≈ 25.4 µM)
MIC [7, 29]: 32 µg/mL (≈ 101 µM)
MIC [8]: 16 µg/mL (≈ 50.7 µM)
MIC [9, 30]: 12.5 µg/mL (≈ 39.6 µM)
MIC ([10]; Staphylococcus aureus, read-out: MIC): 3.13 µg/mL (≈ 9.92 µM)
MIC [11]: 4 µg/mL (≈ 12.7 µM)
MIC [12]: > 128 µg/mL
MIC [13, 31]: 32 µg/mL (≈ 101 µM)
MIC [14]: 4 µg/mL (≈ 12.7 µM)
MIC [15]: 25 µM (≈ 7.89 µg/mL)
MIC [16]: 100 µM (≈ 31.5 µg/mL)
MIC [17]: 50 µM (≈ 15.8 µg/mL)
MIC (E. coli strain DH5α): 12.5 µM (≈ 3.94 µg/mL)
MIC [18, 32]: 50 µg/mL (≈ 159 µM)
MIC [19, 33]: 0.1 µg/mL (≈ 0.317 µM)
MIC [20]: 0.78 µg/mL (≈ 2.47 µM)
MIC [21, 34]: 128 µg/mL (≈ 406 µM)
MIC ([22]; Klebsiella pneumoniae, read-out: MIC): 0.2 µg/mL (≈ 0.634 µM)
MIC [23]: 128 µg/mL (≈ 406 µM)

CC1(C)S[C@@H]2[C@H](NC(=O)[C@H](N)c3ccccc3)C(=O)N2[C@H]1C(=O)O [Ampicillin, ampicillin]
MIC [9, 30]: 100 µg/mL (≈ 286 µM)
MIC [13, 35]: 0.5 µg/mL (≈ 1.43 µM)
MIC ([18]; Streptococcus pneumoniae, 48 h): 3.13 µg/mL (≈ 8.96 µM)
MIC [19, 33]: 0.1 µg/mL (≈ 0.286 µM)
MIC [21, 36]: > 128 µg/mL

CC(C)(O/N=C(\C(=O)N[C@@H]1C(=O)N2C(C(=O)[O-])=C(C[n+]3ccccc3)CS[C@H]12)c1csc(N)n1)C(=O)O [Ceftazidime]
MIC [13, 37]: 128 µg/mL (≈ 234 µM)
MIC ([21]; Enterococcus faecalis): > 128 µg/mL

CCCCC(CN(O)C=O)C(=O)N[C@H](C(=O)N(C)C)C(C)(C)C (stereo partly drawn) [Compound 3, 2R (or S)-[(Formyl-hydroxy-amino)-methyl]-hexanoic acid-(1S-dimethylcarbamoyl-2,2-dimethyl-propyl)-amide]
MIC [1, 24]: 0.5 µg/mL (≈ 1.52 µM)
MIC [2]: 32 µg/mL (≈ 97.1 µM)
MIC [3, 25]: 4 µg/mL (≈ 12.1 µM)
MIC [4, 26]: 2 µg/mL (≈ 6.07 µM)
MIC [5, 27]: 16 µg/mL (≈ 48.6 µM)
MIC [6, 28]: 4 µg/mL (≈ 12.1 µM)
MIC [7, 29]: 8 µg/mL (≈ 24.3 µM)
MIC [8]: 16 µg/mL (≈ 48.6 µM)
MIC [11]: 4 µg/mL (≈ 12.1 µM)
MIC [12]: 128 µg/mL (≈ 389 µM)
MIC [13, 31]: 32 µg/mL (≈ 97.1 µM)
MIC [13, 38]: 32 µg/mL (≈ 97.1 µM)
MIC [14]: 4 µg/mL (≈ 12.1 µM)
MIC [21, 34]: 8 µg/mL (≈ 24.3 µM)
MIC [21, 39]: 8 µg/mL (≈ 24.3 µM)
MIC [23]: > 128 µg/mL

CN(C)C(=O)[C@@H](NC(=O)C(CC1CCCC1)CN(O)C=O)C(C)(C)C (stereo partly drawn) [Cpd 4, 2R (or S)-[(Formyl-hydroxy-amino)-methyl]-3-cyclopentyl-propionic acid (1S-dimethyl-carbamoyl-2,2-dimethyl-propyl)-amide]
MIC [13, 35]: 8 µg/mL (≈ 22.5 µM)
MIC [21, 36]: 4 µg/mL (≈ 11.3 µM)

CC[C@H]1OC(=O)[C@H](C)[C@@H](O[C@H]2C[C@@](C)(OC)[C@@H](O)[C@H](C)O2)[C@H](C)[C@@H](O[C@@H]2O[C@H](C)C[C@H](N(C)C)[C@H]2O)[C@](C)(O)C[C@@H](C)C(=O)[C@H](C)[C@@H](O)[C@]1(C)O [Erythromycin, erythromycin]
MIC [13, 35]: 2 µg/mL (≈ 2.73 µM)
MIC [18, 32]: 100 µg/mL (≈ 136 µM)
MIC [21, 36]: > 128 µg/mL

C[C@@H](O)[C@H]1C(=O)N2C(C(=O)O)=C(SCCN=CN)C[C@H]12 [Imipenem]
MIC [13, 35]: 1 µg/mL (≈ 3.34 µM)
MIC [21, 36]: > 128 µg/mL

CN[C@H](CC(C)C)C(=O)N[C@H]1C(=O)N[C@@H](CC(N)=O)C(=O)N[C@H]2C(=O)N[C@H]3C(=O)N[C@H](C(=O)N[C@H](C(=O)O)c4cc(O)cc(O)c4-c4cc3ccc4O)[C@H](O)c3ccc(c(Cl)c3)Oc3cc2cc(c3O[C@@H]2O[C@H](CO)[C@@H](O)[C@H](O)[C@H]2O[C@H]2C[C@](C)(N)[C@H](O)[C@H](C)O2)Oc2ccc(cc2Cl)[C@H]1O [Vancomycin, reference compound]
MIC ([1]; Micrococcus luteus): 0.25 µg/mL (≈ 0.173 µM)
MIC ([3]; Staphylococcus aureus): 0.5 µg/mL (≈ 0.345 µM)
MIC ([4]; Staphylococcus epidermidis): 0.5 µg/mL (≈ 0.345 µM)
MIC ([5]; Staphylococcus aureus): 0.5 µg/mL (≈ 0.345 µM)
MIC ([6]; Staphylococcus epidermidis): 0.5 µg/mL (≈ 0.345 µM)
MIC ([7]; Staphylococcus aureus): 0.25 µg/mL (≈ 0.173 µM)
MIC [13, 38]: 1 µg/mL (≈ 0.69 µM)
MIC [13, 37]: 1 µg/mL (≈ 0.69 µM)
MIC ([21]; Enterococcus faecalis): > 128 µg/mL
MIC [21, 39]: >128 µg/mL

CC1(C)S[C@@H]2[C@H](NC(=O)C(C(=O)O)c3ccccc3)C(=O)N2[C@H]1C(=O)O (stereo partly drawn) [carbenicillin]
MIC [15]: 200 µM (≈ 75.7 µg/mL)
MIC [16]: < 1.56 µM
MIC [17]: > 200 µM
MIC (E. coli strain DH5α): 25 µM (≈ 9.46 µg/mL)

O=C(N[C@H](CO)[C@H](O)c1ccc([N+](=O)[O-])cc1)C(Cl)Cl [chloramphenicol]
MIC [15]: 12.5 µM (≈ 4.04 µg/mL)
MIC [16]: 6.25 µM (≈ 2.02 µg/mL)
MIC [17]: 25 µM (≈ 8.08 µg/mL)
MIC (E. coli strain DH5α): 3.12 µM (≈ 1.01 µg/mL)

NC[C@H]1O[C@H](O[C@H]2[C@H](O)[C@@H](O[C@H]3O[C@H](CO)[C@@H](O)[C@H](N)[C@H]3O)[C@H](N)C[C@@H]2N)[C@H](O)[C@@H](O)[C@@H]1O [kanamycin]
MIC [15]: 25 µM (≈ 12.1 µg/mL)
MIC [16]: < 1.56 µM
MIC [17]: 50 µM (≈ 24.2 µg/mL)
MIC (E. coli strain DH5α): 12.5 µM (≈ 6.06 µg/mL)

gentamycin [reference compound]
MIC [9]: 0.78 µg/mL
MIC [10]: 0.78 µg/mL
MIC ([18]; S. pneumoniae, tryptic soy broth, 7% calf serum, 37° C., 48 hours): 100 µg/mL
MIC [19]: 0.78 µg/mL
MIC [22]: 0.39 µg/mL

— US6787522B2, “Antibacterial agents” (British Biotech Pharmaceuticals, priority 1998, dated 2004)
